Experimental findings from publication PMC11995724, “Antibiotic target discovery by integrated phenotypic and activity-based profiling of electrophilic fragments” (Cell chemical biology, 2025) are described below.

By viability is commonly meant a read-out of living cells in per cent, often relative to untreated cells.

This series can be described thus: in vitro. The settings on record: human, hek293t cells.
In the case of `C=CC(=O)N(C)CC(=O)N1CCn2cccc2C1C` (stereo not drawn) [2-K10, N-methyl-N-(2-{1-methyl-1H,2H,3H,4H-pyrrolo[1,2-a]pyrazin-2-yl}-2-oxoethyl)prop-2-enamide], the viability at 48 h, 25 µM is 101%. For the compound `C=CC(=O)Nc1ccc(F)c(-n2nnnc2C)c1` [2-K11, N-[4-fluoro-3-(5-methyl-1H-1,2,3,4-tetrazol-1-yl)phenyl]prop-2-enamide], the viability at 48 h, 25 µM is 195%. `C=CC(=O)N1CCCC(c2nc(C)no2)C1` (stereo not drawn) [2-K12, 1-[3-(3-methyl-1,2,4-oxadiazol-5-yl)piperidin-1-yl]prop-2-en-1-one]: the viability at 48 h, 25 µM stood at 101%. As to `C=CC(=O)Nc1ccnn1C1CCCC1` [2-K13, N-(1-cyclopentyl-1H-pyrazol-5-yl)prop-2-enamide], the viability at 48 h, 25 µM was found to be 24%. For `C=CC(=O)NC(Cc1ccccc1)c1ccccn1` (stereo not drawn) [2-K14, N-[2-phenyl-1-(pyridin-2-yl)ethyl]prop-2-enamide], the viability at 48 h, 25 µM came out at 113%. `C=CC(=O)N1CCC(C(=O)Nc2nc3cc(F)c(C)cc3s2)CC1` [2-K15, N-(5-fluoro-6-methyl-1,3-benzothiazol-2-yl)-1-(prop-2-enoyl)piperidine-4-carboxamide]: the viability at 48 h, 25 µM was determined as 191%. With `C=CC(=O)Nc1ccc2nc(O)n(C3CC3)c2c1` [2-K16, N-(1-cyclopropyl-2-hydroxy-1H-1,3-benzodiazol-6-yl)prop-2-enamide], the viability at 48 h, 25 µM was found to be 83.3%. For `C=CC(=O)N1CCC(NC(=O)c2oc(C)cc2C)CC1` [2-K17, 3,5-dimethyl-N-[1-(prop-2-enoyl)piperidin-4-yl]furan-2-carboxamide], the viability at 48 h, 25 µM stood at 79.7%. As to `C=CC(=O)N1CCC(C(=O)NC2CCCc3cc(F)ccc32)CC1` (stereo not drawn) [2-K18, N-(6-fluoro-1,2,3,4-tetrahydronaphthalen-1-yl)-1-(prop-2-enoyl)piperidine-4-carboxamide], the viability at 48 h, 25 µM was 94.2%. `C=CC(=O)N[C@H]1CCO[C@@H]1c1ccnn1C` [2-K19, N-[(2S,3S)-2-(1-methyl-1H-pyrazol-5-yl)oxolan-3-yl]prop-2-enamide]: the viability at 48 h, 25 µM turned out to be 96.4%.

With `C=CC(=O)N1CCC(C(=O)N(C)C(C)CC(N)=O)CC1` (stereo not drawn) [2-K20, 3-{N-methyl-1-[1-(prop-2-enoyl)piperidin-4-yl]formamido}butanamide], the viability at 48 h, 25 µM amounted to 88.3%. On to `C=CC(=O)Nc1ccc(C(=O)NCC2CSCCS2)cc1` (stereo not drawn) [2-K21, N-[(1,4-dithian-2-yl)methyl]-4-(prop-2-enamido)benzamide], for which the viability at 48 h, 25 µM came out at 91.9%.

In the case of `C=CC(=O)N(C)Cc1nc2c(n1C)CCCC2` [2-K22, N-methyl-N-[(1-methyl-4,5,6,7-tetrahydro-1H-1,3-benzodiazol-2-yl)methyl]prop-2-enamide], the viability at 48 h, 25 µM came to 87.1%. Turning to `C=CC(=O)NC1(Cc2nnc3ccccn23)CCCCC1` [2-L03, N-[1-({[1,2,4]triazolo[4,3-a]pyridin-3-yl}methyl)cyclohexyl]prop-2-enamide], the viability at 48 h, 25 µM was 76.2%.

Regarding `C=CC(=O)N(C)CC(=O)N1CCN(c2ccccc2[N+](=O)[O-])CC1` [2-L04, N-methyl-N-{2-[4-(2-nitrophenyl)piperazin-1-yl]-2-oxoethyl}prop-2-enamide], the viability at 48 h, 25 µM is 83.6%. With `C=CC(=O)NCCc1nnc(C(C)C)s1` [2-L05, N-{2-[5-(propan-2-yl)-1,3,4-thiadiazol-2-yl]ethyl}prop-2-enamide], the viability at 48 h, 25 µM stood at 61.9%. Take `C=CC(=O)N1CCC(C(=O)N2CCN(c3ccnc(C)n3)CC2)CC1` [2-L06, 1-{4-[4-(2-methylpyrimidin-4-yl)piperazine-1-carbonyl]piperidin-1-yl}prop-2-en-1-one]: the viability at 48 h, 25 µM turned out to be 88.5%. As for `C=CC(=O)NCc1noc2c1CC(C)(C)CC2` [2-L07, N-[(5,5-dimethyl-4,5,6,7-tetrahydro-1,2-benzoxazol-3-yl)methyl]prop-2-enamide], the viability at 48 h, 25 µM amounted to 60%. For the compound `C=CC(=O)N1CCC(C(=O)N(CC)Cc2occc2C)CC1` [2-L08, N-ethyl-N-[(3-methylfuran-2-yl)methyl]-1-(prop-2-enoyl)piperidine-4-carboxamide], the viability at 48 h, 25 µM amounted to 88.8%. On to `C=CC(=O)NCCn1cc(C2CCOC2)cn1` (stereo not drawn) [2-L09, N-{2-[4-(oxolan-3-yl)-1H-pyrazol-1-yl]ethyl}prop-2-enamide], for which the viability at 48 h, 25 µM came to 53.7%. Turning to `C=CC(=O)N(CC)CC(=O)N1CCC(c2nncn2C)CC1` [2-L10, N-ethyl-N-{2-[4-(4-methyl-4H-1,2,4-triazol-3-yl)piperidin-1-yl]-2-oxoethyl}prop-2-enamide], the viability at 48 h, 25 µM was 72.6%. For the compound `C=CC(=O)NCCNS(=O)(=O)c1cc(C)ccc1F` [2-L11, N-[2-(2-fluoro-5-methylbenzenesulfonamido)ethyl]prop-2-enamide], the viability at 48 h, 25 µM came out at 39.4%. Take `C=CC(=O)N1CCC(C(=O)N2CCCC2C2OCCO2)CC1` (stereo not drawn) [2-L12, 1-{4-[2-(1,3-dioxolan-2-yl)pyrrolidine-1-carbonyl]piperidin-1-yl}prop-2-en-1-one]: the viability at 48 h, 25 µM was determined as 48.7%. `C=CC(=O)NC1CCCN(Cc2ccccc2)C1=O` (stereo not drawn) [2-L13, N-(1-benzyl-2-oxopiperidin-3-yl)prop-2-enamide]: the viability at 48 h, 25 µM was 60.1%. The same measure for `C=CC(=O)N1CCC(C(=O)N2CCOC(c3cccc(F)c3)C2)CC1` (stereo not drawn) [2-L14, 1-{4-[2-(3-fluorophenyl)morpholine-4-carbonyl]piperidin-1-yl}prop-2-en-1-one]: 102%. For `C=CC(=O)NCc1ccc2oc(=O)n(C)c2c1` [2-L15, N-[(3-methyl-2-oxo-2,3-dihydro-1,3-benzoxazol-5-yl)methyl]prop-2-enamide], the viability at 48 h, 25 µM was found to be 55%. Consider `C=CC(=O)N1CCC(C(=O)N2CCCC(C3OCCO3)C2)CC1` (stereo not drawn) [2-L16, 1-{4-[3-(1,3-dioxolan-2-yl)piperidine-1-carbonyl]piperidin-1-yl}prop-2-en-1-one], for which the viability at 48 h, 25 µM came out at 58%. With `C=CC(=O)NCc1ccccc1S(=O)(=O)N1CCCC1` [2-L17, N-{[2-(pyrrolidine-1-sulfonyl)phenyl]methyl}prop-2-enamide], the viability at 48 h, 25 µM turned out to be 68.6%. Under `C=CC(=O)Nc1ccc(C(=O)N(C)C[C@@H]2CCC(=O)N2)cc1` [2-L18, N-methyl-N-{[(2S)-5-oxopyrrolidin-2-yl]methyl}-4-(prop-2-enamido)benzamide] stands 98.8%; under `C=CC(=O)NCC1(n2ccnn2)CC1` [2-L19, N-{[1-(1H-1,2,3-triazol-1-yl)cyclopropyl]methyl}prop-2-enamide], 45.7%; under `C=CC(=O)N1CCC(C(=O)N2CCCN(c3nccs3)CC2)CC1` [2-L20, 1-{4-[4-(1,3-thiazol-2-yl)-1,4-diazepane-1-carbonyl]piperidin-1-yl}prop-2-en-1-one], 90.1%. In the case of `C=CC(=O)N1CCCCC1C1CCCO1` (stereo not drawn) [2-L21, 1-[2-(oxolan-2-yl)piperidin-1-yl]prop-2-en-1-one], the viability at 48 h, 25 µM is 66.2%.

As to `C=CC(=O)N1CCCC(Oc2ccnc(C(=O)NC)c2)C1` (stereo not drawn) [2-L22, N-methyl-4-{[1-(prop-2-enoyl)piperidin-3-yl]oxy}pyridine-2-carboxamide], the viability at 48 h, 25 µM came out at 99.6%. The same measure for `C=CC(=O)NC1CCN(c2ccccc2S(=O)(=O)CC)CC1` [2-M03, N-{1-[2-(ethanesulfonyl)phenyl]piperidin-4-yl}prop-2-enamide]: 82.2%; for `C=CC(=O)N(C)CC(=O)N1CCCC1c1nc(C)no1` (stereo not drawn) [2-M04, N-methyl-N-{2-[2-(3-methyl-1,2,4-oxadiazol-5-yl)pyrrolidin-1-yl]-2-oxoethyl}prop-2-enamide]: 78.5%. On to `C=CC(=O)N(Cc1ccc(OC)cc1)[C@@H]1CCCC[C@H]1O` [2-M05, N-[(1R,2R)-2-hydroxycyclohexyl]-N-[(4-methoxyphenyl)methyl]prop-2-enamide], for which the viability at 48 h, 25 µM came out at 97.6%. Regarding `C=CC(=O)NC(Cn1ccnc1)c1ccccc1` (stereo not drawn) [2-M06, N-[2-(1H-imidazol-1-yl)-1-phenylethyl]prop-2-enamide], the viability at 48 h, 25 µM is 84.5%. Take `C=CC(=O)N1CCCCC1CNC(C)=O` (stereo not drawn) [2-M07, N-{[1-(prop-2-enoyl)piperidin-2-yl]methyl}acetamide]: the viability at 48 h, 25 µM was found to be 186%.

Consider `C=CC(=O)Nc1c(C)ccn2ncnc12` [2-M08, N-{7-methyl-[1,2,4]triazolo[1,5-a]pyridin-8-yl}prop-2-enamide], for which the viability at 48 h, 25 µM was 92%. As for `C=CC(=O)NCCN1CCCCC1C` (stereo not drawn) [2-M09, N-[2-(2-methylpiperidin-1-yl)ethyl]prop-2-enamide], the viability at 48 h, 25 µM came to 182%. As to `C=CC(=O)N1CCC(C(=O)Nc2nnc(CC)s2)CC1` [2-M10, N-(5-ethyl-1,3,4-thiadiazol-2-yl)-1-(prop-2-enoyl)piperidine-4-carboxamide], the viability at 48 h, 25 µM came to 98.8%. With `C=CC(=O)NCc1cccc(N2C(=O)NC3(CCCC3)C2=O)c1` [2-M11, N-[(3-{2,4-dioxo-1,3-diazaspiro[4.4]nonan-3-yl}phenyl)methyl]prop-2-enamide], the viability at 48 h, 25 µM came to 89.7%.

`C=CC(=O)NCCc1nc(-c2ccccc2)nn1C` [2-M12, N-[2-(1-methyl-3-phenyl-1H-1,2,4-triazol-5-yl)ethyl]prop-2-enamide]: the viability at 48 h, 25 µM came to 87.7%. On to `C=CC(=O)Nc1cnc2cc(C)nn2c1` [2-M13, N-{2-methylpyrazolo[1,5-a]pyrimidin-6-yl}prop-2-enamide], for which the viability at 48 h, 25 µM was 136%. For `C=CC(=O)NCCC(=O)Nc1nc2n(n1)CCCC2` [2-M14, N-[2-({5H,6H,7H,8H-[1,2,4]triazolo[1,5-a]pyridin-2-yl}carbamoyl)ethyl]prop-2-enamide], the viability at 48 h, 25 µM turned out to be 109%.

As to `C=CC(=O)N1CCOCC2(CC2)C1` [2-M15, 1-{5-oxa-8-azaspiro[2.6]nonan-8-yl}prop-2-en-1-one], the viability at 48 h, 25 µM came out at 180%.

Take `C=CC(=O)N1CCOCC1CC(=O)c1ccco1` (stereo not drawn) [2-M17, 1-{3-[2-(furan-2-yl)-2-oxoethyl]morpholin-4-yl}prop-2-en-1-one]: the viability at 48 h, 25 µM was found to be 194%. `C=CC(=O)NCc1ccc(C(=O)N2CCC(c3nnc(C)o3)CC2)cc1` [2-M18, N-({4-[4-(5-methyl-1,3,4-oxadiazol-2-yl)piperidine-1-carbonyl]phenyl}methyl)prop-2-enamide]: the viability at 48 h, 25 µM is 87.6%.
